Assay results as given in publication PMC10050154, “Coenzyme A binding sites induce proximal acylation across protein families” (Scientific Reports, 2023).

How the values were obtained:
[1] = target: T1, enoyl-CoA hydratase short chain 1 (ECHS1) (Homo sapiens, UniProt P30084); experiment: LC-MS/MS (DIA) of site-specific lysine succinylation, dose-response; assay type: biochemical
T1 construct: recombinant, purified from E. coli, purchased from Novus Biologicals; homohexamer
T1 sequence (P30084 28-290): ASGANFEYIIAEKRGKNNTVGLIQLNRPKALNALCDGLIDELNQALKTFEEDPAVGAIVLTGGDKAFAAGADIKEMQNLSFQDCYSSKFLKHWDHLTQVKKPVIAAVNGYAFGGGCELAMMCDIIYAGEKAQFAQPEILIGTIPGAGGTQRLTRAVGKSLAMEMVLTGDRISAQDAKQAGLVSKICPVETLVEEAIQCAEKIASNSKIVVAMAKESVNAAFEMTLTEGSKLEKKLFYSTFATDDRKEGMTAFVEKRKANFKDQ

[2] = target: T1, enoyl-CoA hydratase short chain 1 (ECHS1); experiment: LC-MS/MS of lysine acetylation; assay type: binding; settings: covalent (lysine acetylation at K282, K284, K204 near the CoA pocket)

IC50 [1] [mM]	SMILES	LC-MS/MS of lysine acetylation [2]
0.331 to 1.92	CC(C)(COP(=O)(O)OP(=O)(O)OC[C@H]1O[C@@H](n2cnc3c(N)ncnc32)[C@H](O)[C@@H]1OP(=O)(O)O)[C@@H](O)C(=O)NCCC(=O)NCCS [CoA]	
	CC(=O)SCCNC(=O)CCNC(=O)[C@H](O)C(C)(C)COP(=O)(O)OP(=O)(O)OC[C@H]1O[C@@H](n2cnc3c(N)ncnc32)[C@H](O)[C@@H]1OP(=O)(O)O [acetyl-CoA]	in ECHS1 induced by acetyl-CoA incubation was inhibited by a 25-molar excess of CoA
